Data reported in paper PMC5478857, “Metabolic Products of Linalool and Modulation of GABAA Receptors” (Frontiers in Chemistry, 2017).

System: T1, GABAA receptor α1β2γ2
T1 construct: gene GABRA1; α1β2γ2 heteromer transiently expressed in HEK293 cells; with GABAA receptor β2 and γ2 subunits
Assay: whole-cell patch clamp, […] co-applied with […] GABA ([…] of GABA current, P < […])
Assay type: cell-based

C=CC(C)(O)CCC=C(C)C (stereo not shown) [Linalool, 3,7-dimethyl-1,6-octadiene-3-ol]
% of GABA current at 2 mM: 160 ± 14 % of GABA current at 2 mM
